Laboratory results: patent publication EP4707280A1, “1,4-CINEOLE DERIVATIVE AND INTERMEDIATE THEREOF, HERBICIDE CONTAINING SAID DERIVATIVE AS ACTIVE INGREDIENT, METHOD FOR USING HERBICIDE, AND METHOD FOR PREPARING AGROCHEMICAL COMPOSITION” (HOKKO CHEMICAL INDUSTRY CO., LTD., priority 2023, dated 2024)

What was measured:
Type in all cases: in vivo
[1] = tested on: Echinochloa crus-galli var. formosensis; assay: Test Example 1: herbicidal effect test by soil application in paddy rice; conditions: 120 g active ingredient per 10 ares, applied immediately after sowing, flooded pots, 14 days after application; for pest or weed control at 1200 g/ha: Echinochloa crus-galli, soil, 336 h, read-out: weed inhibition rate
In short: (§1)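 Pre-emergence paddy treatment: diluted emulsifiable concentrate applied by dropper at 120 g a.i./10 ares immediately after sowing. Seeds (30 per species, 0–1 cm deep) in fertilized, puddled paddy soil kept under ~3 cm flood in a glass greenhouse.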

Scirpus juncoides [2] = assay: as above; conditions: 120 g active ingredient per 10 ares, applied immediately after sowing, flooded pots, 14 days after application; for pest or weed control at 1200 g/ha: Schoenoplectiella juncoides, soil, 336 h, read-out: weed inhibition rate
In short: as §1

Monochoria vaginalis [3] = assay: as above; conditions: 120 g active ingredient per 10 ares, applied immediately after sowing, flooded pots, 14 days after application; for pest or weed control at 1200 g/ha: Pontederia vaginalis, soil, 336 h, read-out: weed inhibition rate
Description: (§2) Wagner pots with an area of […] were filled with paddy soil, followed by addition of water and incorporation of chemical fertilizer (N:P:K = 16:16:16), after which puddling was performed. After that, seeds of Echinochloa crus-galli var. formosensis, broad-leaved weeds (Lindernia pyxidaria and Monochoria vaginalis), and Scirpus juncoides were sown at a depth of 0 cm to 1 cm, 30 seeds each. Immediately after sowing, the pots were flooded and a water depth of approximately 3 cm was maintained. Subsequent management was conducted in a glass greenhouse. Immediately thereafter, an emulsifiable concentrate prepared according to Formulation Example 5 using the compound shown below was diluted with water, and a specified amount of the diluted solution was applied by dropper. The amount of the active ingredient to be applied was equivalent to 120 g per 10 ares.
(§3) The present test was conducted in duplicate for each chemical concentration group, and the weed inhibition rate (%) was determined 14 days after chemical application using the following formula (Math. 1). [formula]

[4] = tested on: Echinochloa crus-galli var. formosensis; assay: Test Example 2: herbicidal effect test by application during growth period of paddy rice; conditions: 120 g per 10 ares, applied seven days after sowing, flooded pots, 14 days after application; for inhibition at 1200 g/ha: Echinochloa crus-galli, read-out: weed inhibition rate
In short: (§4)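 Paddy soil in Wagner pots was puddled with N:P:K 16:16:16 fertilizer, sown with 30 weed seeds per species at 0–1 cm and flooded to about 3 cm. Seven days after sowing, a water-diluted emulsifiable concentrate was dropped onto the water at 120 g active ingredient per 10 ares. Weed inhibition (%) was scored at 14 days, in duplicate.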

Scirpus juncoides [5] = assay: as above; conditions: 120 g per 10 ares, applied seven days after sowing, flooded pots, 14 days after application
In short: as §4

Amaranthus viridis = assay: Test Example 3: herbicidal effect test by soil application in upland field; conditions: 120 g per 10 ares, sprayed one day after sowing, 14 days after application; for inhibition at 1200 g/ha: Amaranthus viridis, read-out: weed inhibition rate
In short: (§5)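 Weed inhibition (%) was assessed 14 days after treatment, in duplicate per concentration group. Seeds had been mixed into the upper 1 cm of upland alluvial loam, and the soil surface was sprayed one day later with the diluted emulsifiable concentrate at 120 g active ingredient per 10 ares.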

Digitaria ciliaris [6] = assay: as above; conditions: 120 g per 10 ares, sprayed one day after sowing, 14 days after application; for inhibition at 1200 g/ha: Digitaria ciliaris, read-out: weed inhibition rate
In short: as §5

Echinochloa crus-galli [7] = assay: as above; conditions: 120 g per 10 ares, sprayed one day after sowing, 14 days after application; for inhibition at 1200 g/ha: Echinochloa crus-galli, read-out: weed inhibition rate
In short: as §5

Digitaria ciliaris [8] = assay: Test Example 4: herbicidal effect test by stem and leaf treatment in upland field; conditions: 120 g per 10 ares, sprayed seven days after sowing, upland soil, 14 days after application; for inhibition at 1200 g/ha: Digitaria ciliaris, read-out: weed inhibition rate
Echinochloa crus-galli [9] = assay: as above; conditions: 120 g per 10 ares, sprayed seven days after sowing, upland soil, 14 days after application; for inhibition at 1200 g/ha: Echinochloa crus-galli, read-out: weed inhibition rate
[10] = tested on: Echinochloa crus-galli var. formosensis; assay: Test Example 5: herbicidal effect test by soil application in paddy rice (low dose); conditions: 7.5 g per 10 ares, applied immediately after sowing, flooded pots, 14 days after application; for inhibition at 75 g/ha: Echinochloa crus-galli, soil, 336 h, read-out: weed inhibition rate
In short: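 Paddy soil in Wagner pots was fertilized (N:P:K 16:16:16), puddled, sown with 30 seeds per weed species at 0–1 cm, then flooded to ~3 cm in a glass greenhouse. Emulsifiable concentrate diluted in water was dropper-applied into floodwater immediately, at 7.5 g active ingredient per 10 ares; duplicates, scored at 14 days.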

[11] = tested on: Echinochloa crus-galli var. formosensis; assay: Test Example 6: herbicidal effect test by application during growth period of paddy rice (low dose); conditions: 7.5 g per 10 ares, applied seven days after sowing, flooded pots, 14 days after application; for inhibition at 75 g/ha: Echinochloa crus-galli, read-out: weed inhibition rate
In short: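 Puddled, fertilised paddy soil was sown with 30 seeds per species and flooded to about 3 cm. After 7 days in a glass greenhouse, the diluted emulsifiable concentrate went into the water by dropper at 7.5 g/10 a. Effect scored at 14 days.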

Digitaria ciliaris [12] = assay: Test Example 7: herbicidal effect test by soil application in upland field (low dose); conditions: 7.5 g per 10 ares, sprayed one day after sowing, 14 days after application
In short: (§6)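 Pre-emergence soil application: upland alluvial loam pots sown with weed seeds mixed into the top 1 cm; one day after sowing, a water-diluted emulsifiable concentrate was sprayed on the soil at 100 L per 10 a, delivering 7.5 g active ingredient per 10 a. Weed inhibition rate (%) scored 14 days after application, duplicate pots.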

Echinochloa crus-galli [13] = assay: as above; conditions: 7.5 g per 10 ares, sprayed one day after sowing, 14 days after application
In short: as §6

Echinochloa crus-galli [14] = assay: Test Example 8: herbicidal effect test by stem and leaf treatment in upland field (low dose); conditions: 7.5 g per 10 ares, sprayed seven days after sowing, upland soil, 14 days after application; for inhibition at 75 g/ha: Echinochloa crus-galli, read-out: weed inhibition rate
Chenopodium album = assay: Test Example 3: herbicidal effect test by soil application in upland field; conditions: 120 g per 10 ares, sprayed one day after sowing, 14 days after application, read-out: weed inhibition rate
In short: as §5

Digitaria ciliaris [15] = assay: Test Example 8: herbicidal effect test by stem and leaf treatment in upland field (low dose); conditions: Digitaria ciliaris; 7.5 g per 10 ares; sprayed seven days after sowing, upland soil; 14 days after application; read-out: weed inhibition rate
Lindernia pyxidaria [16] = assay: Test Example 1: herbicidal effect test by soil application in paddy rice; conditions: 336 h, 120 g active ingredient per 10 ares, applied immediately after sowing, flooded pots, 14 days after application, read-out: weed inhibition rate
Description: as §2, §3

Monochoria vaginalis [17] = assay: Test Example 2: herbicidal effect test by application during growth period of paddy rice; conditions: Pontederia vaginalis; 120 g per 10 ares; applied seven days after sowing, flooded pots; 14 days after application; read-out: weed inhibition rate
In short: as §4

Scirpus juncoides [18] = assay: Test Example 5: herbicidal effect test by soil application in paddy rice (low dose); conditions: Schoenoplectiella juncoides, 336 h, 7.5 g per 10 ares, applied immediately after sowing, flooded pots, 14 days after application, read-out: weed inhibition rate
Description: as §3
as §2, with “(Monochoria” for “(Lindernia pyxidaria and Monochoria”, “7.5” for “120”
The present test was conducted in duplicate for each chemical concentration group, and the herbicidal effect was evaluated 14 days after chemical application using the same criteria as in Test Example 1.

Lindernia pyxidaria [19] = assay: Test Example 2: herbicidal effect test by application during growth period of paddy rice; conditions: 120 g per 10 ares, applied seven days after sowing, flooded pots, 14 days after application, read-out: weed inhibition rate
In short: as §4

CCOC(C)O[C@H]1C[C@]2(C)O[C@@]1(C(C)C)C[C@H]2OCc1ccccc1F (stereo partly drawn) [1-213, (1R,28,4S,5R)-2-(1-ethoxyethoxy)-5-((2-fluorobenzyl)oxy)-1-isopropyl-4-methyl-7-oxabicyclo[2.2.1]heptane]
≥ 80%: weed inhibition rate [1] | weed inhibition rate (Scirpus juncoides [2]) | weed inhibition rate (Monochoria vaginalis [3]) | weed inhibition rate [4] | weed inhibition rate (Scirpus juncoides [5]) | weed inhibition rate (Amaranthus viridis) | weed inhibition rate (Digitaria ciliaris [6]) | weed inhibition rate (Echinochloa crus-galli [7]) | weed inhibition rate (Digitaria ciliaris [8]) | weed inhibition rate (Echinochloa crus-galli [9]) | weed inhibition rate [10] | weed inhibition rate [11] | weed inhibition rate (Digitaria ciliaris [12]) | weed inhibition rate (Echinochloa crus-galli [13]) | weed inhibition rate (Echinochloa crus-galli [14])

CC(C)[C@]12C[C@@H](OCc3ccccc3F)[C@](C)(CC1c1ccccc1)O2 (stereo partly drawn) [1-322, (1S,2R,4R)-2-((2-fluorobenzyl)oxy)-4-isopropyl-1-methyl-5-phenyl-7-oxabicyclo[2.2.1]heptane]
≥ 80%: pest or weed control at 1200 g/ha [1] | inhibition at 1200 g/ha [4] | inhibition at 1200 g/ha (Chenopodium album) | inhibition at 1200 g/ha (Echinochloa crus-galli [7]) | inhibition at 1200 g/ha (Digitaria ciliaris [8]) | inhibition at 1200 g/ha (Echinochloa crus-galli [9]) | inhibition at 75 g/ha [10] | inhibition at 75 g/ha [11] | inhibition at 75 g/ha (Digitaria ciliaris [15]) | inhibition at 75 g/ha (Echinochloa crus-galli [14])

CC(C)[C@]12C[C@@H](OCCOCc3ccccc3)[C@](C)(C[C@@H]1Br)O2 [1-725, (1S,2R,4R,5S)-5-bromo-1-methyl-2-(2-phenylmethoxyethoxy)-4-isopropyl-7-oxabicyclo[2.2.1]heptane]
≥ 80%: inhibition at 1200 g/ha [4] | inhibition at 1200 g/ha (Amaranthus viridis) | inhibition at 1200 g/ha (Echinochloa crus-galli [9])

CC(C)[C@]12C[C@@H](OCc3ccccc3F)[C@](C)(CC1c1ccccc1F)O2 (stereo partly drawn) [1-922, (1S,2R,4R)-2-((2-fluorobenzyl)oxy)-5-(2-fluorophenyl)-4-isopropyl-1-methyl-7-oxabicyclo[2.2.1]heptane]
≥ 80%: pest or weed control at 1200 g/ha [1] | pest or weed control at 1200 g/ha (Scirpus juncoides [2]) | pest or weed control at 1200 g/ha (Lindernia pyxidaria [16]) | pest or weed control at 1200 g/ha (Monochoria vaginalis [3]) | inhibition at 1200 g/ha [4] | inhibition at 1200 g/ha (Monochoria vaginalis [17]) | inhibition at 1200 g/ha (Echinochloa crus-galli [7]) | inhibition at 1200 g/ha (Digitaria ciliaris [8]) | inhibition at 1200 g/ha (Echinochloa crus-galli [9]) | inhibition at 75 g/ha [10]

CC(C)[C@]12C[C@@H](OCc3ccccc3F)[C@](C)(CC1c1cccc(F)c1)O2 (stereo partly drawn) [1-923, (1S,2R,4R)-2-((2-fluorobenzyl)oxy)-5-(3-fluorophenyl)-4-isopropyl-1-methyl-7-oxabicyclo[2.2.1]heptane]
≥ 80%: pest or weed control at 1200 g/ha [1] | pest or weed control at 1200 g/ha (Scirpus juncoides [2]) | inhibition at 1200 g/ha [4] | inhibition at 1200 g/ha (Echinochloa crus-galli [7]) | inhibition at 1200 g/ha (Echinochloa crus-galli [9]) | inhibition at 75 g/ha (Scirpus juncoides [18])

Cc1cccc(C2C[C@]3(C)O[C@@]2(C(C)C)C[C@H]3OCc2ccccc2F)c1 (stereo partly drawn) [1-926, (1S,2R,4R)-2-((2-fluorobenzyl)oxy)-4-isopropyl-1-methyl-5-(m-tolyl)-7-oxabicyclo[2.2.1]heptane]
≥ 80%: pest or weed control at 1200 g/ha [1] | pest or weed control at 1200 g/ha (Scirpus juncoides [2]) | inhibition at 1200 g/ha [4] | inhibition at 1200 g/ha (Amaranthus viridis) | inhibition at 1200 g/ha (Chenopodium album) | inhibition at 1200 g/ha (Echinochloa crus-galli [7])

COc1ccc(CO[C@@H]2C[C@]3(C(C)C)O[C@@]2(C)CC3=O)cc1 [2-346, (1R,4S,5R)-1-isopropyl-5-((4-methoxybenzyl)oxy)-4-methyl-7-oxabicyclo[2.2.1]heptan-2-one]
≥ 80%: inhibition at 1200 g/ha [4] | inhibition at 1200 g/ha (Amaranthus viridis)

Cc1ccc(CO[C@@H]2C[C@]3(C(C)C)O[C@@]2(C)CC3=O)cc1 [2-350, (1R,4S,5R)-1-isopropyl-4-methyl-5-[(4-methylbenzyl)oxy]-7-oxabicyclo[2.2.1]heptan-2-one]
≥ 80%: pest or weed control at 1200 g/ha [1] | pest or weed control at 1200 g/ha (Scirpus juncoides [2]) | pest or weed control at 1200 g/ha (Monochoria vaginalis [3]) | inhibition at 1200 g/ha [4] | inhibition at 1200 g/ha (Chenopodium album) | inhibition at 1200 g/ha (Digitaria ciliaris [6]) | inhibition at 1200 g/ha (Echinochloa crus-galli [7]) | inhibition at 1200 g/ha (Digitaria ciliaris [8]) | inhibition at 1200 g/ha (Echinochloa crus-galli [9]) | inhibition at 75 g/ha [10] | inhibition at 75 g/ha [11] | inhibition at 75 g/ha (Echinochloa crus-galli [14])

Cc1cccc(CO[C@@H]2C[C@]3(C(C)C)O[C@@]2(C)CC3=O)c1 [2-352, (1R,4S,5R)-1-isopropyl-4-methyl-5-((3-methylbenzyl)oxy)-7-oxabicyclo[2.2.1]heptan-2-one]
≥ 80%: pest or weed control at 1200 g/ha [1] | pest or weed control at 1200 g/ha (Scirpus juncoides [2]) | inhibition at 1200 g/ha [4] | inhibition at 1200 g/ha (Lindernia pyxidaria [19]) | inhibition at 1200 g/ha (Scirpus juncoides [5]; Schoenoplectiella juncoides, read-out: weed inhibition rate) | inhibition at 1200 g/ha (Digitaria ciliaris [6]) | inhibition at 1200 g/ha (Echinochloa crus-galli [7]) | inhibition at 1200 g/ha (Digitaria ciliaris [8]) | inhibition at 1200 g/ha (Echinochloa crus-galli [9]) | inhibition at 75 g/ha [10] | inhibition at 75 g/ha [11]
